Structures are written as SMILES. The source made the active and inactive calls. No rule for the calls is given here.

This assay relates to Schistosoma mansoni. The assay can be described thus: In vitro activity screen on S. mansoni schistosomula at 10 uM. Compound-induced effects were assessed by quantifying larva motility and phenotype using Roboworm. Type of assay: functional, organism-based. Also on record: test concentration 10 uM, temperature 37 degree C, time incubation 72 h. The settings on record: Puerto Rican.
Turning to `CCCc1nn(C)c2c(=O)[nH]c(-c3cc(S(=O)(=O)Oc4ccc(=O)[nH]n4)ccc3OCC)nc12`, the In vitro activity entry is “inactive”.

As to `COCc1cc(-c2nc(-c3ccc(CN(C)CC(=O)O)c(F)c3)no2)ccc1-c1ccccc1F`, the In vitro activity result is “inactive”.

Consider `COc1ccc(OC)c(-c2cn3cc(C(=O)NCCc4cccc(OC)c4OC)ccc3n2)c1`, for which the In vitro activity entry is “inactive”.

Regarding `O=C(O)c1cn(Cc2ccc(-c3ccccc3)cc2)c2ccccc2c1=O`, the In vitro activity result is “inactive”.

In the case of `Cc1cc(-c2ccccc2)c(S(C)(=O)=O)cc1C(=O)N=C(N)N`, the In vitro activity result is “inactive”.

`O=C(O)c1ccc(-c2nc(NCc3ccc4c(c3)OCO4)c3c4c(oc3n2)CCCC4)cc1`: the In vitro activity result is “inactive”.

Consider `Cc1ccccc1-c1ccc(-c2nc(-c3ccc(CN(C)CCC(=O)O)cc3)no2)cc1C(F)(F)F`, for which the In vitro activity result was “inactive”.

As for `COc1nc(/C=C/c2nc3n(n2)CCCC3c2ccccc2C(F)(F)F)ccc1-n1cnc(C)c1` (stereo not drawn), the In vitro activity result is “inactive”.

Take `Cc1cc(C2CCC2)c(S(C)(=O)=O)cc1C(=O)N=C(N)N`: the In vitro activity entry was “inactive”.

Regarding `CCN1CCC2(CC1)OC(=O)C(C)=C2C(=O)N1C[C@@H]2C[C@H]1CN2c1cc(C(F)(F)F)ccn1`, the In vitro activity entry is “inactive”.

`Oc1ccc2[nH]cc(CCCCN3CC=C(c4ccccc4)CC3)c2c1`: the In vitro activity entry was “inactive”.

Regarding `CN(C)c1nc2c(s1)CCc1[nH]c(=O)c(C#N)cc1-2`, the In vitro activity entry was “inactive”.

With `Cc1cc(OC(F)(F)F)c(S(C)(=O)=O)cc1C(=O)N=C(N)N`, the In vitro activity entry was “inactive”.

`COc1ccc(CNc2nc(CCCCC(=O)O)nc3sc4c(c23)CCCC4)cc1Cl`: the In vitro activity result was “inactive”.

Turning to `Cc1cc(C(=O)C(C)SN2C(=O)c3ccccc3C2=O)ccc1O` (stereo not drawn), the In vitro activity entry was “inactive”.

On to `COc1ccccc1CCN1CCC2(CC1)OC(=O)C(C)=C2C(=O)N1CCc2ccc(C(F)(F)F)cc2C1`, for which the In vitro activity entry is “inactive”.

For the compound `COCc1cc(-c2nc(-c3ccc(CN(C)CCC(=O)O)cc3)no2)ccc1-c1ccccc1C`, the In vitro activity result is “inactive”.

With `Cc1ccccc1-c1ccc(-c2nc(-c3ccc(CN(C)CCC(=O)O)c(F)c3)no2)cc1C(F)(F)F`, the In vitro activity entry is “inactive”.

With `CCN1CCC2(CC1)OC(=O)C(C)=C2C(=O)N1C[C@@H]2C[C@H]1CN2c1nccc(C(F)(F)F)n1`, the In vitro activity result was “inactive”.

As to `CC1(C)Oc2ccc(C#N)cc2[C@@H](n2ccccc2=O)[C@@H]1O`, the In vitro activity result was “inactive”.

Take `CC1=C(C(=O)N2CCN(c3cccc(C(F)(F)F)c3)CC2)C2(CCN(CCc3ccc(F)cc3)CC2)OC1=O`: the In vitro activity entry is “inactive”.

On to `O=C(Nc1ccc(CNc2ncnc3ccccc23)cc1)c1ccc(Cl)c(F)c1`, for which the In vitro activity entry was “inactive”.

Consider `COc1cc(S(C)(=O)=O)ccc1-c1nc2ccncc2[nH]1`, for which the In vitro activity entry was “inactive”.

Regarding `CCC(C)Oc1ccc(-c2nc(-c3cc(F)cc(CN(C)CCC(=O)O)c3)no2)cc1COC` (stereo not drawn), the In vitro activity result was “inactive”.

Consider `CC1=C(C(=O)N2CCc3ccc(C(F)(F)F)cc3C2)C2(CCN(CC3CCOC3)CC2)OC1=O` (stereo not drawn), for which the In vitro activity result was “inactive”.

For `CCc1cc(C(=O)NCc2ccc(OC)c(Cl)c2)c(NC(=O)c2ccc(C(=O)O)cc2)s1`, the In vitro activity entry was “inactive”.

Regarding `COc1cc(OC)c(CCNC(=O)c2cn3cc(-c4cc(OCC(=O)O)ccc4OC)nc3s2)c(OC)c1`, the In vitro activity result was “inactive”.

Turning to `COCc1cc(-c2nc(-c3cccc(CN(C)CC(=O)O)c3)no2)ccc1-c1ccccc1`, the In vitro activity entry is “inactive”.

For `CC1(C)Oc2ccc(C#N)cc2[C@@H](n2ccccc2=O)[C@]1(C)O`, the In vitro activity entry was “inactive”.

On to `CC1=C(C(=O)N2Cc3cc(C(F)(F)F)ccc3C(C)(C)C2)C2(CCN(C3CCOCC3)CC2)OC1=O`, for which the In vitro activity result is “inactive”.

For `COc1ccccc1-n1c(=S)[nH]c2scc(C)c2c1=O`, the In vitro activity entry is “inactive”.

Take `CCCc1nn(C)c2c(=O)[nH]c(-c3cc(S(=O)(=O)Oc4ccccn4)ccc3OCC)nc12`: the In vitro activity entry was “inactive”.

`COc1cc(OC)c(CCNC(=O)c2cn3cc(-c4cc(OCC(O)CO)ccc4OC)nc3s2)c(OC)c1` (stereo not drawn): the In vitro activity result is “inactive”.

With `CCOc1cc(C2=NN(C(=O)c3ccc(NC(=O)c4cccnc4)cc3)CCC2)ccc1OC`, the In vitro activity result is “inactive”.

For the compound `C1=C(c2ccccc2)CCN(CCCCc2c[nH]c3ccccc23)C1`, the In vitro activity result was “inactive”.

As for `O=C(O)CC1CCN(c2nc(NCc3ccc4c(c3)OCO4)c3c4c(sc3n2)CCCC4)CC1`, the In vitro activity entry is “inactive”.

On to `O=C(c1cc(-c2ccccn2)nc2ccc(Br)cc12)N1CCCC1`, for which the In vitro activity entry is “inactive”.

As for `Cc1cc(C)c(S(C)(=O)=O)cc1C(=O)N=C(N)N`, the In vitro activity entry is “inactive”.

Take `CCCCCCN(Cc1ccc(C#Cc2ccc(CCCC)cc2)cc1)C(=O)c1ccc(O)c(C(=O)O)c1`: the In vitro activity entry was “inactive”.

Take `CCCCCCN(Cc1ccc(C#Cc2ccc(CCCC)cc2)cc1)c1ccc(O)c(C(=O)O)c1`: the In vitro activity entry is “inactive”.

For the compound `COc1ccc(CNc2nc([C@H]3CC[C@H](C(=O)O)CC3)nc3sc4ccccc4c23)cc1Cl`, the In vitro activity result was “inactive”.

`COc1cc(OC)c(CCNC(=O)c2ccc3nc(-c4cc(OC)ccc4OC)cn3c2)c(OC)c1`: the In vitro activity result was “inactive”.

For `Cc1cc(Cl)c(-n2cccc2)cc1C(=O)N=C(N)N`, the In vitro activity result is “inactive”.

Regarding `COc1ccc(CNc2nc(-c3ccc(S(=O)(=O)O)cc3)nc3sc4c(c23)CCCC4)cc1Cl`, the In vitro activity result is “inactive”.

For `CCCc1nn(C)c2c(=O)[nH]c(-c3cc(S(=O)(=O)n4ccc(O)cc4=O)ccc3OCC)nc12`, the In vitro activity entry is “inactive”.

Regarding `CC1=C(C(=O)N2CCc3ccc(C(F)(F)F)cc3C2)C2(CCN(C(C)(C)C)CC2)OC1=O`, the In vitro activity entry was “inactive”.

For the compound `c1cnc(N2CCN(Cc3cncc(-c4ccsc4)c3)CC2)nc1`, the In vitro activity entry was “inactive”.

Regarding `CCCN1CCC2(CC1)OC(=O)C(C)=C2C(=O)N1CCc2ccc(C(F)(F)F)cc2C1`, the In vitro activity result was “inactive”.

Turning to `CC(C)(Sc1nc(-c2ccccc2)c(-c2ccccc2)s1)C(=O)O`, the In vitro activity result is “inactive”.

As to `CC(c1cccc(-c2nnn[nH]2)c1)N(Cc1ccccc1)S(=O)(=O)c1ccc(Cl)cc1` (stereo not drawn), the In vitro activity result is “inactive”.

For `COc1ccc(OCC(=O)O)cc1-c1cn2cc(C(=O)NCCc3c(OC)cccc3OC)sc2n1`, the In vitro activity entry was “inactive”.

As for `COc1cc(C(=O)Nc2cn(Cc3ccc(Cl)cc3)nn2)ccc1-n1cnc(C)c1`, the In vitro activity result is “inactive”.

`CSc1cc(C)c(C(=O)N=C(N)N)cc1S(C)(=O)=O`: the In vitro activity result is “inactive”.

As for `COc1cc([S+](C)[O-])ccc1-c1nc2cnccc2[nH]1` (stereo not drawn), the In vitro activity entry is “inactive”.

In the case of `CC1=C(C(=O)N2CCc3ccc(C(F)(F)F)cc3C2)C2(CCN(C3CCOCC3)CC2)OC1=O`, the In vitro activity entry is “inactive”.

As for `COc1cc(Nc2nccn3nc(Nc4cccc(C(F)(F)F)c4)nc23)cc(OC)c1`, the In vitro activity result is “inactive”.

On to `CC/N=C(\c1ccc(OC)c(OC)c1)N1CCCc2cc(C3=NNC(=O)SC3C)ccc21` (stereo not drawn), for which the In vitro activity result was “inactive”.

`Cc1cc2c(cc1C(=O)N=C(N)N)S(=O)(=O)C(C)(C)/C2=N\O`: the In vitro activity entry was “inactive”.

As for `C=CCSc1ccc(-c2nc3ccncc3[nH]2)c(OC)c1`, the In vitro activity entry was “inactive”.

For the compound `CS(=O)(=O)c1cccc(-c2ccc(Cn3cc(C(=O)O)c(=O)c4cccc(F)c43)cn2)c1`, the In vitro activity entry is “inactive”.

As for `COCc1cc(-c2nc(-c3cccc(CN(C)CCC(=O)O)c3)no2)ccc1N1CCCCC1C` (stereo not drawn), the In vitro activity result is “inactive”.

Regarding `CCCc1nn(C)c2c(=O)[nH]c(-c3cc(S(=O)(=O)Oc4ccc(=O)n(C)n4)ccc3OCC)nc12`, the In vitro activity result is “inactive”.

For `CCNC1=N[C@@H]2[C@@H](O)[C@H](O)[C@@H](Cn3cc(COc4cccc(Br)c4)nn3)O[C@@H]2S1`, the In vitro activity entry was “inactive”.

With `COc1nc(/C=C/c2nc3n(n2)CCC[C@@H]3c2ccccc2C(F)(F)F)ccc1-n1cnc(C)c1`, the In vitro activity result was “inactive”.

`COCCCN1CCC2(CC1)OC(=O)C(C)=C2C(=O)N1CCc2ccc(C(F)(F)F)cc2C1`: the In vitro activity result was “inactive”.

Regarding `COCc1cc(-c2nc(-c3cccc(CN(C)CC(=O)O)c3)no2)ccc1N1CCCCC1`, the In vitro activity entry was “inactive”.

As for `CCCc1nn(C)c2c(=O)[nH]c(-c3cc(S(=O)(=O)Oc4cccnc4C)ccc3OCC)nc12`, the In vitro activity entry is “inactive”.

As for `O=C(O)CCC(=O)OCC1(c2ccc(Cl)cc2)OCC(c2ccccc2)(c2ccccc2)CO1`, the In vitro activity result is “inactive”.

As to `COc1cc([S+]([O-])Cc2ccccc2)ccc1-c1nc2ccncc2[nH]1` (stereo not drawn), the In vitro activity entry is “inactive”.

For `CCN(CCC(=O)O)Cc1cccc(-c2noc(-c3ccc(-c4ccccc4C)c(COC)c3)n2)c1`, the In vitro activity entry is “inactive”.

Regarding `COc1ccc(CNc2nc(-c3ccc(CC(=O)O)cc3)nc3sc4c(c23)CCCC4)cc1Cl`, the In vitro activity result is “inactive”.

As to `O=C(O)c1ccc(-c2nc(NCc3ccccc3)c3c4c(sc3n2)CCCC4)cc1`, the In vitro activity result is “inactive”.

Regarding `COCc1cc(-c2nc(-c3ccc(CN(C)CC(=O)O)cc3)no2)ccc1-c1ccccc1C`, the In vitro activity result was “inactive”.

Take `COc1cc(C(=O)Nc2cn(Cc3ccc(Cl)c(Cl)c3)nn2)ccc1-n1cnc(C)c1`: the In vitro activity entry is “inactive”.

`CNC(=O)c1cc(Oc2ccc(NC(=O)Nc3cc(C(F)(F)F)ccc3-n3cncn3)cc2)ccn1`: the In vitro activity entry was “inactive”.

In the case of `COc1ccc(N2C(=O)c3ccccc3NC23CN(Cc2cccc(C)c2)C3)cc1`, the In vitro activity result is “inactive”.

Turning to `CCS(=O)(=O)c1cc(C)c(C(=O)N=C(N)N)cc1S(C)(=O)=O`, the In vitro activity entry was “inactive”.

Turning to `O=C(O)c1ccc(-c2nc(NCc3cccnc3)c3c(n2)sc2ccccc23)cc1`, the In vitro activity entry is “inactive”.

Source of the values: ChEMBL document CHEMBL5441142, “Probing the Merck KGaA Open Global health library for novel starting points for anti-schistosomal drug discovery” (2024).
